Laboratory results published in patent US20250320198A1, “SALT OF ENDOTHELIN A (ETA) RECEPTOR ANTAGONIST COMPOUND, AND PREPARATION METHOD THEREFOR AND MEDICAL USE THEREOF” (SHENZHEN SALUBRIS PHARMACEUTICALS CO., LTD, priority 2022, published 2025).

Experiments:
[1] = Research on compound microsome: prototype remaining and transformation to Atrasentan in human liver microsomes (+NADPH); format: in vitro ADME; settings: for Prototype remaining quantity (%) Mean: human liver microsome (+NADPH), 37° C.
Experimental: Human liver microsomes were all purchased from Rild Liver Disease Research (Shanghai) Co., Ltd.
Reagents: dimethyl sulfoxide (DMSO), acetonitrile, formic acid, and propranolol (internal standard) are all commercially available.
Instrument: Thermo Fisher Scientific LC-MS (U300 UPLC, TSQ QUANTUMN ULTRA triple quadrupole mass spectrometer).
A certain amount of compound was precisely weighed and dissolved in DMSO to prepare a 10 mM stock solution, and the stock solution was diluted with a diluent (ACN:H2O=1:1) to a 100 μM working solution, and then diluted with a 0.1 M potassium phosphate buffer solution to a 3 μM administration solution for later use. 75 μL of liver microsomes were taken and added into 925 μL of a 0.1 M potassium phosphate buffer solution to be mixed uniformly to obtain a 1.5 mg/mL liver microsome suspension, and the liver microsome suspension was pre-incubated at 37° C. for 10 minutes. Preparation at 0 o'clock: 15 μL of the above liver microsome suspension was taken and added into a 6 mM NADPH solution, 150 μL of a propranolol acetonitrile solution was added immediately for precipitation, and then 15 μL of the above administration solution was added and mixed uniformly for later use. Preparation of samples at 20 minutes and 60 minutes: 15 μL of the administration solution was taken, 15 μL of the liver microsome suspension and 15 μL of the 6 mM NADPH solution were added and mixed uniformly, and a mixture was incubated at 37° C. for 20 minutes and 60 minutes, respectively. The preparation of the above samples was carried out using dual-pore parallel operation. When the above samples are incubated to the relevant time point, 150 μL of the propranolol acetonitrile solution was added to terminate the reaction. All the above samples were centrifuged at 4000 rpm for 5 minutes, and 100 μL of a supernatant was taken, added into 100 μL of ultrapure water and mixed uniformly for LC-MS/MS analysis. LC-MS/MS detection conditions are as follows:
Chromatographic column: Waters ACQUITY™ PREMIER HSS T3, 50*2.1 mm, 1.8 μm.
(§1) Mobile phase: water (0.1% formic acid)—acetonitrile. Perform gradient elution according to the table below.
An initial 0 o'clock was taken as 100%, a relative residual content of the drug at each time point was calculated, and each time point of Atrasentan was taken as 100% to calculate the relative amount of transformation of the compound in the embodiment to Atrasentan.

[2] = Pharmacokinetic study of compound in rats (Embodiment 13), intragastric administration; format: in vivo; settings: SD rats
Text: SD rats: male, 200-300 g, purchased from Beijing Vital River Laboratory Animal Technology Co., Ltd.
Reagents: dimethyl sulfoxide (DMSO), polyethylene glycol 400 (PEG-400), normal saline, heparin, acetonitrile, formic acid, and propranolol (internal standard) are all commercially available.
Instrument: Thermo Fisher Scientific LC-MS/MS (U300 UPLC, TSQ QUANTUMN ULTRA triple quadrupole mass spectrometer).
The compound was weighed and dissolved in a DMSO-PEG-400-normal saline (5:60:35, v/v/v) system. After intragastric administration to rats, 200 μL of venous blood was collected in a sodium-fluoride heparinized EP tube at 15 minutes, 30 minutes, 1 hour, 2 hours, 5 hours, 7 hours, and 24 hours after administration and centrifuged at 12000 rpm for 2 minutes. Plasma was taken and frozen and preserved at −80° C. for testing. A certain amount of samples for test was precisely weighed and dissolved in DMSO to 2 mg/mL as a stock solution. An appropriate amount of compound stock solution was accurately sucked, and diluted by adding acetonitrile to prepare a standard series solution. 20 μL of each of the above standard series solution was accurately sucked, 180 μL of blank plasma was added, and vortex mixing was performed to prepare plasma samples equivalent to plasma concentrations of 1 ng/mL, 3 ng/mL, 5 ng/mL, 10 ng/mL, 30 ng/mL, 100 ng/mL, 300 ng/mL, 1000 ng/mL, and 3000 ng/mL. Dual sample analysis was performed for each concentration to establish a standard curve. 30 μL of plasma was taken, 200 μL of an acetonitrile solution of internal standard propranolol (50 ng/mL) was added, vortex mixing was performed, then 100 μL of purified water was added, vortex mixing was performed again, a mixture was centrifuged at 4000 rpm for 5 minutes, and a supernatant was taken for LC-MS/MS analysis. LC-MS/MS detection conditions are as follows: Chromatographic column: Waters ACQUITY™ PREMIER HSS T3, 50*2.1 mm, 1.8 μm.
as §1
After LC-MS/MS detection of blood drug concentration, WinNonlin 6.1 software was used to calculate pharmacokinetic parameters using a non compartmental model method.

[3] = Study on stability of salts (chemical stability by HPLC); format: physicochemical
[4] = Study on hygroscopicity by dynamic vapor sorption (DVS); format: physicochemical
Experimental: Hygroscopicity of sulphate, phosphate, hydrochloride, and oxalate was evaluated using a dynamic vapor sorption (DVS). The test collected percentage changes in mass of samples under a constant temperature condition of 25° C. with changes in humidity.

Prototype remaining quantity (%) Mean ([1]; time 0 min (taken as 100%)) [%] | Prototype remaining quantity (%) Mean ([1]; time 20 min) [%] | Prototype remaining quantity (%) Mean ([1]; time 60 min) [%] | SMILES | other results
100.0 | 67.8 | 1.6 | CCCCN(CCCC)C(=O)CN1C[C@H](c2ccc3c(c2)OCO3)[C@@H](C(=O)OC(C)OC(=O)OCC)[C@@H]1c1ccc(OC)cc1 (stereo partly drawn) [Compound 2, 1-[(ethoxycarbonyl)oxy]ethyl(2R,3R,4S)-4-(benzo[d][1,3]dioxolane-5-yl)-1-[2-(dibutylamino)-2-oxoethyl]-2-(4-methoxyphenyl)pyrrolidine-3-carboxylate] | 
100.0 | 0 | 0 | CCCCN(CCCC)C(=O)CN1C[C@H](c2ccc3c(c2)OCO3)[C@@H](C(=O)OC(C)OC(=O)OCCNC)[C@@H]1c1ccc(OC)cc1 (stereo partly drawn) [Compound 5, 1-(((2-(methylamino)ethoxy)carbonyl)oxy)ethyl-(2R,3R,4S)-4-(benzo[d][1,3]dioxolane-5-yl)-1-[2-(dibutylamino)-2-oxoethyl]-2-(4-methoxyphenyl)pyrrolidine-3-carboxylate] | 
100.0 | 0.04 | 0.03 | CCCCN(CCCC)C(=O)CN1C[C@H](c2ccc3c(c2)OCO3)[C@@H](C(=O)OC(C)OC(=O)OCCO)[C@@H]1c1ccc(OC)cc1 (stereo partly drawn) [Compound 8, 1-(((2-hydroxyethoxy)carbonyl)oxy)ethyl-(2R,3R,4S)-4-(benzo[d][1,3]dioxolane-5-yl)-1-[2-(dibutylamino)-2-oxoethyl]-2-(4-methoxyphenyl)pyrrolidine-3--carboxylate] | 
100.0 | 0.1 | 0.0 | CCCCN(CCCC)C(=O)CN1C[C@H](c2ccc3c(c2)OCO3)[C@@H](C(=O)OC(C)OC(=O)OC[C@H]2COCCO2)[C@@H]1c1ccc(OC)cc1 (stereo partly drawn) [Compound 9, 1-(((((R)-1,4-dioxane-2-yl)methoxy)carbonyl)oxy)ethyl-(2R,3R,4S)-4-(benzo[d][1,3]dioxolane-5-yl)-1-[2-(dibutylamino)-2-oxoethyl]-2-(4-methoxyphenyl)pyrrolidine-3-carboxylate] | 

The next lines start with the compound.

SMILES | Prototype remaining quantity (%) Mean ([1]; time 0 min (taken as 100%)) [%] | Prototype remaining quantity (%) Mean ([1]; time 20 min) [%] | Prototype remaining quantity (%) Mean ([1]; time 60 min) [%] | other results
CCCCN(CCCC)C(=O)CN1C[C@H](c2ccc3c(c2)OCO3)[C@@H](C(=O)O)[C@@H]1c1ccc(OC)cc1 [Atrasentan, (2R,3R,4S)-4-(benzo[d][1,3]dioxolan-5-yl)-1-[2-(dibutylamino)-2-oxoethyl]-2-(4-methoxyphenyl)pyrrolidine-3-carboxylic acid, reference compound] | 100.0 | 83.3 | 50.3 | 
CCCCN(CCCC)C(=O)CN1C[C@H](c2ccc3c(c2)OCO3)[C@@H](C(=O)OCOC(=O)OCC)[C@@H]1c1ccc(OC)cc1 [Compound 1, 1-[(ethoxycarbonyl)oxy]methyl-(2R,3R,4S)-4-(benzo[d][1,3]dioxolane-5-yl)-1-[2-(dibutylamine)-2-oxoethyl]-2-(4-methoxyphenyl)pyrrolidine-3-carboxylate] | 100.0 | 0.5 | 0.7 | 
CCCCN(CCCC)C(=O)CN1C[C@H](c2ccc3c(c2)OCO3)[C@@H](C(=O)OC(C)OC(=O)OC(C)C)[C@@H]1c1ccc(OC)cc1 (stereo partly drawn) [Compound 3, 1-[(isopropoxycarbonyl)oxy]ethyl-(2R,3R,4S)-4-(benzo[d][1,3]dioxolane-5-yl)-1-[2-(dibutylamino)-2-oxoethyl]-2-(4-methoxyphenyl)pyrrolidine-3-carboxylate] | 100.0 | 0.04 | 0.06 | Absorption after intragastric administration compared with Atrasentan (in words) [2]: better than that of Atrasentan; Exposure level in rats compared with the same dosage of Atrasentan (in words) [2]: higher than those of the same dosage of Atrasentan; Conversion into Atrasentan in human microsomes (in words) ([1]; human liver microsomes): fully converted into Atrasentan
CCCCN(CCCC)C(=O)CN1C[C@H](c2ccc3c(c2)OCO3)[C@@H](C(=O)OC(C)OC(=O)OC)[C@@H]1c1ccc(OC)cc1 (stereo partly drawn) [Compound 4, 1-[(methoxycarbonyl)oxy]ethyl-(2R,3R,4S)-4-(benzo[d][1,3]dioxolane-5-yl)-1-[2-(dibutylamino)-2-oxoethyl]-2-(4-methoxyphenyl)pyrrolidine-3-carboxylate] | 100.0 | 0 | 0 | Absorption after intragastric administration compared with Atrasentan (in words) [2]: better than that of Atrasentan; Exposure level in rats compared with the same dosage of Atrasentan (in words) [2]: higher than those of the same dosage of Atrasentan
CCCCN(CCCC)C(=O)CN1C[C@H](c2ccc3c(c2)OCO3)[C@@H](C(=O)OC(C)OC(=O)OC[C@@H](O)CO)[C@@H]1c1ccc(OC)cc1 (stereo partly drawn) [Compound 6, 1-((((S)-2,3-dihydroxypropoxy)carbonyl)oxy)ethyl-(2R,3R,4S)-4-(benzo[d][1,3]dioxolane-5-yl)-1-[2-(dibutylamino)-2-oxoethyl]-2-(4-methoxyphenyl)pyrrolidine-3-carboxylate] | 100.0 | 0.0 | 0.7 | 
CCCCN(CCCC)C(=O)CN1C[C@H](c2ccc3c(c2)OCO3)[C@@H](C(=O)OC(C)OC(=O)OC2COC2)[C@@H]1c1ccc(OC)cc1 (stereo partly drawn) [Compound 10, 1-((((oxetane-3-yl)oxy)carbonyl)oxy)ethyl-(2R,3R,4S)-4-(benzo[d][1,3]dioxolane-5-yl)-1-[2-(dibutylamino)-2-oxoethyl]-2-(4-methoxyphenyl)pyrrolidine-3-carboxylate] | 100.0 | 0.0 | 0.0 | 
CCCCN(CCCC)C(=O)CN1C[C@H](c2ccc3c(c2)OCO3)[C@@H](C(=O)OC(C)OC(=O)OC[C@@H]2COCCO2)[C@@H]1c1ccc(OC)cc1 (stereo partly drawn) [Compound 11, 1-(((((S)-1,4-dioxane-2-yl)methoxy)carbonyl)oxy)ethyl-(2R,3R,4S)-4-(benzo[d][1,3]dioxolane-5-yl)-1-[2-(dibutylamino)-2-oxoethyl]-2-(4-methoxyphenyl)pyrrolidine-3-carboxylate] | 100.0 | 0.5 | 0.0 | 
CCCCN(CCCC)C(=O)CN1C[C@H](c2ccc3c(c2)OCO3)[C@@H](C(=O)OC(C)OC(=O)OC(C)C)[C@@H]1c1ccc(OC)cc1.O=C(O)C(=O)O (some centres unmarked) [Oxalate] |  |  |  | Stability (in words) ([3]; 25° C./60% RH and 40° C./75% RH, one week): good stability; Purity (area %) ([3]; 25° C./60% RH, one week): 99.39 area %; Purity (area %) ([3]; 40° C./75% RH, one week): 98.52 area %; Purity (area %) ([3]; Start): 99.56 area %; Hygroscopicity (in words) ([4]; 25° C.): lower hygroscopicity; Vapor sorption ([4]; 25° C./80% RH): 0.96%
